Holding throughout (assay type): functional
One assay deals with Enterococcus faecium. In words: Antibacterial activity against Enterococcus faecium LCB0009 by two fold serial dilution method.
Assay [1] relates to Escherichia coli. In words: Antibacterial activity against Escherichia coli LCB0012 by two fold serial dilution method.
A further assay concerns Staphylococcus aureus. The assay is described as follows: Antibacterial activity against Staphylococcus aureus LCB0001 by two fold serial dilution method.
Assay [2] concerns Escherichia coli. In words: Antibacterial activity against Escherichia coli LCB0010 by two fold serial dilution method.
A further assay deals with Pseudomonas aeruginosa. In words: Antibacterial activity against Pseudomonas aeruginosa LCB0013 by two fold serial dilution method.
Another assay has as its system Haemophilus influenzae. In words: Antibacterial activity against Haemophilus influenzae LCB0015 by two fold serial dilution method.
Another assay relates to Moraxella catarrhalis. In words: Antibacterial activity against Moraxella catarrhalis LCB0016 by two fold serial dilution method.
For assay [3], the system named is Staphylococcus epidermidis. In words: Antibacterial activity against Staphylococcus epidermidis LCB0003 by two fold serial dilution method.
In the next assay the test system is Klebsiella pneumoniae. The assay is described as follows: Antibacterial activity against Klebsiella pneumoniae LCB0014 by two fold serial dilution method.
Assay [4] has as its system Escherichia coli. In words: Antibacterial activity against Escherichia coli LCB0011 by two fold serial dilution method.
The next assay concerns Enterococcus faecalis. The assay is described as follows: Antibacterial activity against Enterococcus faecalis LCB0005 by two fold serial dilution method.

Values after ≈ are worked out from the molar mass of the structure shown.

Turning to `CCOC(=O)C1=C(O)CC(c2ccccc2)N(C(=O)C(C)Oc2ccc3ccccc3c2)C1c1ccccc1` (stereo not drawn), the MIC90 in the assay with Enterococcus faecium, against Escherichia coli [1], with Staphylococcus aureus, in the assay with Escherichia coli [2], in the assay on Pseudomonas aeruginosa and in the assay with Haemophilus influenzae was above 128 µg/mL throughout. Also, the MIC90 (against Moraxella catarrhalis; in [3]; against Klebsiella pneumoniae; in the assay on Escherichia coli [4]; in the assay on Enterococcus faecalis) was above 128 µg/mL in each case.

On to `CCOC(=O)C1=C(O)CC(c2ccccc2)N(C(=O)Cn2nnc(-c3ccccc3)n2)C1c1ccccc1` (stereo not drawn), for which the MIC90 against Enterococcus faecium is 128 µg/mL (≈ 251 µM); in the assay on Escherichia coli [1], above 128 µg/mL; with Staphylococcus aureus it was above 128 µg/mL; with Escherichia coli [2], above 128 µg/mL; in the assay on Pseudomonas aeruginosa, above 128 µg/mL; against Haemophilus influenzae, above 128 µg/mL. The MIC90 (in the assay on Moraxella catarrhalis; in assay [3]; against Klebsiella pneumoniae; in the assay on Escherichia coli [4]; in the assay on Enterococcus faecalis) was above 128 µg/mL in each case.

Turning to `CCOC(=O)C1=C(O)CC(c2ccccc2)N(C(=O)Cn2ccc3ccccc32)C1c1ccccc1` (stereo not drawn), the MIC90 with Enterococcus faecium, in the assay on Escherichia coli [1], against Staphylococcus aureus, in the assay on Escherichia coli [2], with Pseudomonas aeruginosa and with Haemophilus influenzae was above 128 µg/mL each time. Further, the MIC90 in the assay on Moraxella catarrhalis was 32 µg/mL (≈ 66.6 µM); in [3], above 128 µg/mL; against Klebsiella pneumoniae, above 128 µg/mL; in the assay on Escherichia coli [4], above 128 µg/mL; in the assay on Enterococcus faecalis, above 128 µg/mL.

Regarding `CCOC(=O)C1=C(O)CC(c2ccccc2)N(C(=O)COc2ccc3ccccc3c2)C1c1ccccc1` (stereo not drawn), the MIC90 in the assay with Enterococcus faecium is 128 µg/mL (≈ 252 µM); against Escherichia coli [1], above 128 µg/mL; against Staphylococcus aureus, above 128 µg/mL; against Escherichia coli [2] it was above 128 µg/mL; in the assay with Pseudomonas aeruginosa it was above 128 µg/mL; against Haemophilus influenzae, above 128 µg/mL. The MIC90 (against Moraxella catarrhalis; in [3]; with Klebsiella pneumoniae; in the assay with Escherichia coli [4]; with Enterococcus faecalis) was above 128 µg/mL throughout.

For the compound `CCOC(=O)C1=C(O)CC(c2ccccc2)N(C(=O)C(C)Sc2ccc3ccccc3c2)C1c1ccccc1` (stereo not drawn), the MIC90 in the assay with Enterococcus faecium, against Escherichia coli [1], in the assay with Staphylococcus aureus, against Escherichia coli [2], in the assay with Pseudomonas aeruginosa and in the assay on Haemophilus influenzae was above 128 µg/mL each time. The MIC90 (against Moraxella catarrhalis; in assay [3]; against Klebsiella pneumoniae; in the assay with Escherichia coli [4]; against Enterococcus faecalis) was above 128 µg/mL each time.

Turning to `CCOC(=O)C1=C(O)CC(c2ccccc2)N(C(=O)C(C)N2CCOCC2)C1c1ccccc1` (stereo not drawn), the MIC90 in the assay with Enterococcus faecium was 128 µg/mL (≈ 276 µM); against Escherichia coli [1] it was above 128 µg/mL; in the assay with Staphylococcus aureus it was above 128 µg/mL; in the assay on Escherichia coli [2], above 128 µg/mL; against Pseudomonas aeruginosa, above 128 µg/mL; in the assay on Haemophilus influenzae, above 128 µg/mL. In addition, the MIC90 (in the assay with Moraxella catarrhalis; in [3]; with Klebsiella pneumoniae; in the assay on Escherichia coli [4]; with Enterococcus faecalis) was above 128 µg/mL throughout.

As for `CCOC(=O)C1=C(O)CC(c2ccccc2)N(C(=O)C(C)N2CCCCC2)C1c1ccccc1` (stereo not drawn), the MIC90 is 128 µg/mL (≈ 277 µM) in the assay on Enterococcus faecium; above 128 µg/mL against Escherichia coli [1]; above 128 µg/mL against Staphylococcus aureus; above 128 µg/mL against Escherichia coli [2]; above 128 µg/mL in the assay on Pseudomonas aeruginosa; above 128 µg/mL against Haemophilus influenzae. Moreover, the MIC90 was 64 µg/mL (≈ 138 µM) in the assay on Moraxella catarrhalis; above 128 µg/mL in assay [3]; above 128 µg/mL with Klebsiella pneumoniae; above 128 µg/mL against Escherichia coli [4]; above 128 µg/mL against Enterococcus faecalis.

As for `CCOC(=O)C1=C(O)CC(c2ccccc2)N(C(=O)Cn2nnc3ccccc32)C1c1ccccc1` (stereo not drawn), the MIC90 with Enterococcus faecium was 64 µg/mL (≈ 133 µM); against Escherichia coli [1], above 128 µg/mL; against Staphylococcus aureus it was above 128 µg/mL; in the assay on Escherichia coli [2], above 128 µg/mL; in the assay on Pseudomonas aeruginosa it was above 128 µg/mL; with Haemophilus influenzae, above 128 µg/mL. Also, the MIC90 (against Moraxella catarrhalis; in [3]; in the assay on Klebsiella pneumoniae; with Escherichia coli [4]; against Enterococcus faecalis) was above 128 µg/mL each time.

On to `CCOC(=O)C1=C(O)CC(c2ccccc2)N(C(=O)CN2CCCCC2)C1c1ccccc1` (stereo not drawn), for which the MIC90 with Enterococcus faecium is 128 µg/mL (≈ 285 µM); in the assay with Escherichia coli [1], 64 µg/mL (≈ 143 µM); in the assay on Staphylococcus aureus, above 128 µg/mL; in the assay on Escherichia coli [2] it was above 128 µg/mL; with Pseudomonas aeruginosa it was above 128 µg/mL; in the assay on Haemophilus influenzae it was above 128 µg/mL. Further, the MIC90 with Moraxella catarrhalis was 32 µg/mL (≈ 71.3 µM); in assay [3] it was above 128 µg/mL; in the assay on Klebsiella pneumoniae, above 128 µg/mL; in the assay on Escherichia coli [4], above 128 µg/mL; against Enterococcus faecalis, above 128 µg/mL.

As to `CCOC(=O)C1=C(O)CC(c2ccccc2)N(C(=O)C(C)n2nnc(-c3ccccc3)n2)C1c1ccccc1` (stereo not drawn), the MIC90 against Enterococcus faecium, with Escherichia coli [1], in the assay with Staphylococcus aureus, against Escherichia coli [2], with Pseudomonas aeruginosa and in the assay with Haemophilus influenzae was above 128 µg/mL each time. Also, the MIC90 (against Moraxella catarrhalis; in assay [3]; in the assay on Klebsiella pneumoniae; against Escherichia coli [4]; with Enterococcus faecalis) was above 128 µg/mL in each case.

For `CCOC(=O)C1=C(O)CC(c2ccccc2)N(C(=O)CN2CCSCC2)C1c1ccccc1` (stereo not drawn), the MIC90 in the assay on Enterococcus faecium, against Escherichia coli [1], against Staphylococcus aureus, against Escherichia coli [2], in the assay with Pseudomonas aeruginosa and in the assay with Haemophilus influenzae was above 128 µg/mL each time. In addition, the MIC90 against Moraxella catarrhalis was 64 µg/mL (≈ 137 µM); in [3], above 128 µg/mL; against Klebsiella pneumoniae it was above 128 µg/mL; in the assay on Escherichia coli [4], above 128 µg/mL; with Enterococcus faecalis it was above 128 µg/mL.

In the case of `CCOC(=O)C1=C(O)CC(c2ccccc2)N(C(=O)C(C)N2CCC(=O)CC2)C1c1ccccc1` (stereo not drawn), the MIC90 in the assay on Enterococcus faecium is above 128 µg/mL; against Escherichia coli [1] it was 128 µg/mL (≈ 269 µM); with Staphylococcus aureus it was above 128 µg/mL; with Escherichia coli [2] it was above 128 µg/mL; against Pseudomonas aeruginosa it was above 128 µg/mL; with Haemophilus influenzae, above 128 µg/mL. In addition, the MIC90 (against Moraxella catarrhalis; in [3]; against Klebsiella pneumoniae; against Escherichia coli [4]; against Enterococcus faecalis) was above 128 µg/mL throughout.

For `CCOC(=O)C1=C(O)CC(c2ccccc2)N(C(=O)C(C)Sc2nc3ccccc3o2)C1c1ccccc1` (stereo not drawn), the MIC90 against Enterococcus faecium, in the assay on Escherichia coli [1], in the assay on Staphylococcus aureus, against Escherichia coli [2], in the assay on Pseudomonas aeruginosa and with Haemophilus influenzae was above 128 µg/mL throughout. The MIC90 (against Moraxella catarrhalis; in assay [3]; with Klebsiella pneumoniae; with Escherichia coli [4]; with Enterococcus faecalis) was above 128 µg/mL each time.

As for `CCOC(=O)C1=C(O)CC(c2ccccc2)N(C(=O)C(C)n2ccc3ccccc32)C1c1ccccc1` (stereo not drawn), the MIC90 was above 128 µg/mL against Enterococcus faecium; 128 µg/mL (≈ 259 µM) against Escherichia coli [1]; above 128 µg/mL in the assay on Staphylococcus aureus; above 128 µg/mL in the assay with Escherichia coli [2]; above 128 µg/mL in the assay with Pseudomonas aeruginosa; above 128 µg/mL against Haemophilus influenzae. For the same compound, the MIC90 (with Moraxella catarrhalis; in [3]; against Klebsiella pneumoniae; in the assay on Escherichia coli [4]; against Enterococcus faecalis) was above 128 µg/mL in each case.

`CCOC(=O)C1=C(O)CC(c2ccccc2)N(C(=O)C(C)n2ccnc2)C1c1ccccc1` (stereo not drawn): the MIC90 in the assay with Enterococcus faecium is above 128 µg/mL; with Escherichia coli [1], 64 µg/mL (≈ 144 µM); against Staphylococcus aureus, 32 µg/mL (≈ 71.8 µM); with Escherichia coli [2], above 128 µg/mL; with Pseudomonas aeruginosa, 128 µg/mL (≈ 287 µM); against Haemophilus influenzae, above 128 µg/mL. Besides, the MIC90 against Moraxella catarrhalis was 64 µg/mL (≈ 144 µM); in assay [3], above 128 µg/mL; against Klebsiella pneumoniae it was 128 µg/mL (≈ 287 µM); against Escherichia coli [4] it was above 128 µg/mL; with Enterococcus faecalis, above 128 µg/mL.

Turning to `CCOC(=O)C1=C(O)CC(c2ccccc2)N(C(=O)C(C)n2nnc3ccccc32)C1c1ccccc1` (stereo not drawn), the MIC90 with Enterococcus faecium, against Escherichia coli [1], in the assay on Staphylococcus aureus, in the assay with Escherichia coli [2], against Pseudomonas aeruginosa and in the assay with Haemophilus influenzae was above 128 µg/mL throughout. The MIC90 (with Moraxella catarrhalis; in assay [3]; with Klebsiella pneumoniae; against Escherichia coli [4]; with Enterococcus faecalis) was above 128 µg/mL each time.

For `CCOC(=O)C1=C(O)CC(c2ccccc2)N(C(=O)CSc2nc3ccccc3o2)C1c1ccccc1` (stereo not drawn), the MIC90 against Enterococcus faecium, against Escherichia coli [1], in the assay with Staphylococcus aureus, in the assay on Escherichia coli [2], in the assay with Pseudomonas aeruginosa and against Haemophilus influenzae was above 128 µg/mL throughout. Also, the MIC90 (with Moraxella catarrhalis; in assay [3]; against Klebsiella pneumoniae; in the assay on Escherichia coli [4]; with Enterococcus faecalis) was above 128 µg/mL throughout.

For the compound `CCOC(=O)C1=C(O)CC(c2ccccc2)N(C(=O)CN2CCC(=O)CC2)C1c1ccccc1` (stereo not drawn), the MIC90 with Enterococcus faecium, with Escherichia coli [1], in the assay with Staphylococcus aureus, against Escherichia coli [2], in the assay on Pseudomonas aeruginosa and against Haemophilus influenzae was above 128 µg/mL each time. Further, the MIC90 against Moraxella catarrhalis was 64 µg/mL (≈ 138 µM); in assay [3], above 128 µg/mL; against Klebsiella pneumoniae, above 128 µg/mL; with Escherichia coli [4], above 128 µg/mL; against Enterococcus faecalis, above 128 µg/mL.

For `CCOC(=O)C1=C(O)CC(c2ccccc2)N(C(=O)C(C)n2cnc3ccccc32)C1c1ccccc1` (stereo not drawn), the MIC90 against Enterococcus faecium, with Escherichia coli [1], in the assay on Escherichia coli [2], with Pseudomonas aeruginosa, against Haemophilus influenzae and against Moraxella catarrhalis was above 128 µg/mL in each case. Also, the MIC90 (in assay [3]; in the assay on Klebsiella pneumoniae; with Escherichia coli [4]; in the assay on Enterococcus faecalis) was above 128 µg/mL in each case.

Source of the values: ChEMBL document CHEMBL1156319, “Synthesis, crystal and antibacterial studies of diversely functionalized tetrahydropyridin-4-ol” (2010).
